Reference: ChEMBL document CHEMBL3885861, “Open TG-GATES”

Species: Rattus norvegicus
Assay: Open TG-GATES - Regimen: Single
Format: toxicity, organism-based, Sprague-Dawley
Set-up: regimen Single, gender Male, age 6 weeks
Details: in vivo, po, 0 mg/kg, route gavage, dose level Control; for APTT / Bas / Eos / Fbg / Hb / Ht / Lym / MCH / MCHC / MCV / Mono / Neu / PT / Plat / RBC / Ret / WBC: tissue Blood; for KIDNEY_L / KIDNEY_R / KIDNEY_TOTAL: tissue Kidney; for LIVER: tissue Liver; for A/G / ALP / ALT / AST / BUN / CRE / Ca / Cl / DBIL / GLC / IP / K / LDH / Na / PL / RALB / TBIL / TC / TG / TP / gamma-GTP: tissue Plasma

Question: Which results are given for CC(CN1c2ccccc2Sc2ccccc21)N(C)C (configuration not stated) [PROMETHAZINE]?
Answer: TERMINAL_BW (3 h): 213.5 g; APTT (3 h): 22.4 s; Bas (3 h): 0%; Eos (3 h): 0.8%; Fbg (3 h): 333.6 mg/dL; Hb (3 h): 13 g/dL; Ht (3 h): 39.9%; Lym (3 h): 81.4%; MCH (3 h): 20.6 pg; MCHC (3 h): 32.6%; MCV (3 h): 63.4 fL; Mono (3 h): 2.4%; Neu (3 h): 15.2%; PT (3 h): 16.4 s; Plat (3 h): 117.1 x10_4/uL; RBC (3 h): 629.4 x10_4/ul; Ret (3 h): 8.5%; WBC (3 h): 94.5 x10_2/uL; KIDNEY_L (3 h): 0.9 g; KIDNEY_R (3 h): 1 g; KIDNEY_TOTAL (3 h): 1.9 g; LIVER (3 h): 9.9 g; A/G (3 h): 1.2; ALP (3 h): 1819.4 IU/L; ALT (3 h): 42.8 IU/L; AST (3 h): 76 IU/L; BUN (3 h): 12.8 mg/dL; CRE (3 h): 0.2 mg/dL; Ca (3 h): 10.9 mg/dL; Cl (3 h): 105.8 meq/L; DBIL (3 h): 0 mg/dL; GLC (3 h): 190.4 mg/dL; IP (3 h): 8.1 mg/dL; K (3 h): 4.4 meq/L; LDH (3 h): 234.4 IU/L; Na (3 h): 142.2 meq/L; PL (3 h): 134.2 mg/dL; RALB (3 h): 3 g/dL; TBIL (3 h): 0.016 mg/dL; TC (3 h): 75 mg/dL; TG (3 h): 64.2 mg/dL; TP (3 h): 5.5 g/dL; gamma-GTP (3 h): 1.2 IU/L; TERMINAL_BW (6 h): 210.9 g; APTT (6 h): 22.7 s; Bas (6 h): 0%; Eos (6 h): 1%; Fbg (6 h): 310.8 mg/dL; Hb (6 h): 13.3 g/dL; Ht (6 h): 39.9%; Lym (6 h): 82.6%; MCH (6 h): 20.9 pg; MCHC (6 h): 33.4%; MCV (6 h): 62.5 fL; Mono (6 h): 2.4%; Neu (6 h): 13.6%; PT (6 h): 16.7 s; Plat (6 h): 111.7 x10_4/uL; RBC (6 h): 639.6 x10_4/ul; Ret (6 h): 7.3%; WBC (6 h): 81.5 x10_2/uL; KIDNEY_L (6 h): 1 g; KIDNEY_R (6 h): 1 g; KIDNEY_TOTAL (6 h): 2 g; LIVER (6 h): 8.7 g; A/G (6 h): 1.3; ALP (6 h): 1393.4 IU/L; ALT (6 h): 41.4 IU/L; AST (6 h): 76.2 IU/L; BUN (6 h): 11.2 mg/dL; CRE (6 h): 0.2 mg/dL; Ca (6 h): 10.9 mg/dL; Cl (6 h): 104.8 meq/L; DBIL (6 h): 0 mg/dL; GLC (6 h): 186.2 mg/dL; IP (6 h): 9.4 mg/dL; K (6 h): 4.3 meq/L; LDH (6 h): 208.2 IU/L; Na (6 h): 141.2 meq/L; PL (6 h): 133.8 mg/dL; RALB (6 h): 3 g/dL; TBIL (6 h): 0.018 mg/dL; TC (6 h): 83.2 mg/dL; TG (6 h): 53 mg/dL; TP (6 h): 5.4 g/dL; gamma-GTP (6 h): 1.8 IU/L; TERMINAL_BW (9 h): 207.6 g; APTT (9 h): 22.2 s; Bas (9 h): 0%; Eos (9 h): 0.8%; Fbg (9 h): 318.8 mg/dL; Hb (9 h): 13.1 g/dL; Ht (9 h): 40.1%; Lym (9 h): 80%; MCH (9 h): 20.8 pg; MCHC (9 h): 32.6%; MCV (9 h): 64 fL; Mono (9 h): 3%; Neu (9 h): 15.6%; PT (9 h): 16.7 s; Plat (9 h): 123.9 x10_4/uL; RBC (9 h): 627.6 x10_4/ul; Ret (9 h): 8.1%; WBC (9 h): 107.3 x10_2/uL; KIDNEY_L (9 h): 1 g; KIDNEY_R (9 h): 1 g; KIDNEY_TOTAL (9 h): 1.9 g; LIVER (9 h): 8.7 g; A/G (9 h): 1.2; ALP (9 h): 1357.2 IU/L; ALT (9 h): 38.8 IU/L; AST (9 h): 68 IU/L; BUN (9 h): 12.4 mg/dL; CRE (9 h): 0.2 mg/dL; Ca (9 h): 10.6 mg/dL; Cl (9 h): 104.6 meq/L; DBIL (9 h): 0.004 mg/dL; GLC (9 h): 191.2 mg/dL; IP (9 h): 10 mg/dL; K (9 h): 4.5 meq/L; LDH (9 h): 237.8 IU/L; Na (9 h): 140.4 meq/L; PL (9 h): 125.8 mg/dL; RALB (9 h): 3 g/dL; TBIL (9 h): 0.016 mg/dL; TC (9 h): 73.2 mg/dL; TG (9 h): 55 mg/dL; TP (9 h): 5.4 g/dL; gamma-GTP (9 h): 1.2 IU/L; TERMINAL_BW (24 h): 222 g; APTT (24 h): 22.1 s; Bas (24 h): 0%; Eos (24 h): 0.8%; Fbg (24 h): 326.8 mg/dL; Hb (24 h): 13.5 g/dL; Ht (24 h): 40.2%; Lym (24 h): 81.6%; MCH (24 h): 20.8 pg; MCHC (24 h): 33.5%; MCV (24 h): 62.2 fL; Mono (24 h): 2%; Neu (24 h): 14.8%; PT (24 h): 17 s; Plat (24 h): 131.7 x10_4/uL; RBC (24 h): 647.6 x10_4/ul; Ret (24 h): 7.2%; WBC (24 h): 130.1 x10_2/uL; KIDNEY_L (24 h): 1 g; KIDNEY_R (24 h): 1 g; KIDNEY_TOTAL (24 h): 2 g; LIVER (24 h): 10.5 g; A/G (24 h): 1.3; ALP (24 h): 1690.8 IU/L; ALT (24 h): 44.2 IU/L; AST (24 h): 73.2 IU/L; BUN (24 h): 15.8 mg/dL; CRE (24 h): 0.2 mg/dL; Ca (24 h): 11 mg/dL; Cl (24 h): 106.6 meq/L; DBIL (24 h): 0 mg/dL; GLC (24 h): 192.6 mg/dL; IP (24 h): 7.2 mg/dL; K (24 h): 4.4 meq/L; LDH (24 h): 180.6 IU/L; Na (24 h): 142.4 meq/L; PL (24 h): 141.4 mg/dL; RALB (24 h): 3.1 g/dL; TBIL (24 h): 0.004 mg/dL; TC (24 h): 74.4 mg/dL; TG (24 h): 95.8 mg/dL; TP (24 h): 5.5 g/dL; gamma-GTP (24 h): 1.4 IU/L
